The source made the active and inactive calls.
How the values were obtained:
[1] = target: T1, Mitochondrial peptide methionine sulfoxide reductase (Bos taurus, UniProt P54149); experiment: Absorbance-based biochemical high throughput dose response assay for activators of Methionine sulfoxide reductase A (MsrA).; type: functional
T1 sequence (P54149 whole entry): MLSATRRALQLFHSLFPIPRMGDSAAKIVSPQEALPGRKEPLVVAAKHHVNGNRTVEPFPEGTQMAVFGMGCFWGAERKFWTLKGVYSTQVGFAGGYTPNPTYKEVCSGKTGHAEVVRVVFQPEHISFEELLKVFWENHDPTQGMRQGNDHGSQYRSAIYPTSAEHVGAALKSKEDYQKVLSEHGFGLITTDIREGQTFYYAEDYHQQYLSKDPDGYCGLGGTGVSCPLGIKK

[2] = bead-based luminescence quenchers, dual-tagged ARNT – biochemical, AlphaScreen, cherry-pick, artefact control for ARNT-TACC3 interaction inhibitor project, dose response (AID 651705); type: functional;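 further: AlphaScreen bead proximity signal that flags compounds interfering with the detection technology; potency reflects signal decrease which marks the compound as an assay artifact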
[3] = Trypanosoma cruzi growth suppression in host cells – NIH3T3 host cells, beta-gal luminescence, confirmation (AID 2044); type: functional, cell-based;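 further: intracellular parasites grown in NIH/3T3 mouse fibroblasts as host cells; luminescent beta-galactosidase reporter signal from transgenic T. cruzi replicating inside host cells; inhibitors lower the luminescence signal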
[4] = system: Vero; experiment: cells; type: functional; settings: Chlorocebus sabaeus
[5] = inhibition of ARNT PAS-B/TACC3 complex formation – biochemical, AlphaScreen, cherry-picked samples, confirmation (AID 651703); type: functional, Homo sapiens;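 further: His-tagged ARNT PAS-B domain paired with GST-TACC3 E629A dimer coactivator fragment; potency of inhibitors that break up the complex and lower AlphaScreen signal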
[6] = NIH3T3 cell viability loss – ATP luminescence, mouse fibroblasts, counter-screen, dose response (AID 2010); type: functional, cell-based;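 further: cells exposed to compound for about 90 hours before reading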
[7] = target: T2, DNA repair protein RAD52 homolog (Homo sapiens, UniProt P43351); type: functional, biochemical
T2 sequence (P43351 whole entry): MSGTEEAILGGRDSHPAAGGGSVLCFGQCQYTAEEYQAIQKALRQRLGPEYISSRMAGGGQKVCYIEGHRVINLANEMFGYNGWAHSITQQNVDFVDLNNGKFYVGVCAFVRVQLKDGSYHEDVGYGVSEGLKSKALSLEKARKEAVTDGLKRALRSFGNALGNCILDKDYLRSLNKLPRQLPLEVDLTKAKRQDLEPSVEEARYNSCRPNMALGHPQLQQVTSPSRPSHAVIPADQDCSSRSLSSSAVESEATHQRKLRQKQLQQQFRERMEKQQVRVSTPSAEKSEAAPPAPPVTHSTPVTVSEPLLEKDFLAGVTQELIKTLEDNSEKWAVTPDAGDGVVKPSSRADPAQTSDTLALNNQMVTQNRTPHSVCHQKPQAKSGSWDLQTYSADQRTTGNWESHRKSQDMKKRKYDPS

[8] = target: Cytochrome P450 2C19 (Homo sapiens, UniProt P33261); experiment: Cytochrome panel assay with activity outcomes. Panel member name: p450-cyp2c19 Compounds with AC50 equal or less than 10 uM are considered active; type: functional; settings: read-out: AC50
Cytochrome P450 2C19, sequence (P33261 whole entry): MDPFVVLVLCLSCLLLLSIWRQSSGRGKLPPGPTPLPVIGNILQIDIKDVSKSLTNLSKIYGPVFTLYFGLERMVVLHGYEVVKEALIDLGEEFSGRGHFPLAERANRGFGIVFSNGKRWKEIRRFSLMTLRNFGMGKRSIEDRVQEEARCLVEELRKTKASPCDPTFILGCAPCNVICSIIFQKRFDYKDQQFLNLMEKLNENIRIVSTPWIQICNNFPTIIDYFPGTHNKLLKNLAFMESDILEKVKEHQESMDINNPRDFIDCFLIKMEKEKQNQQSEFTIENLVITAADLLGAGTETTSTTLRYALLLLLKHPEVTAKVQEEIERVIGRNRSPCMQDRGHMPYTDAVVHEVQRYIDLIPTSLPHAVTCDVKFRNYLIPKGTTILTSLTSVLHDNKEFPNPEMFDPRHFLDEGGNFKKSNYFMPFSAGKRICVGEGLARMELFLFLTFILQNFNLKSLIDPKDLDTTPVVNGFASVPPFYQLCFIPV

[9] = target: Cytochrome P450 2C9 (Homo sapiens, UniProt P11712)
Cytochrome P450 2C9, sequence (P11712 whole entry): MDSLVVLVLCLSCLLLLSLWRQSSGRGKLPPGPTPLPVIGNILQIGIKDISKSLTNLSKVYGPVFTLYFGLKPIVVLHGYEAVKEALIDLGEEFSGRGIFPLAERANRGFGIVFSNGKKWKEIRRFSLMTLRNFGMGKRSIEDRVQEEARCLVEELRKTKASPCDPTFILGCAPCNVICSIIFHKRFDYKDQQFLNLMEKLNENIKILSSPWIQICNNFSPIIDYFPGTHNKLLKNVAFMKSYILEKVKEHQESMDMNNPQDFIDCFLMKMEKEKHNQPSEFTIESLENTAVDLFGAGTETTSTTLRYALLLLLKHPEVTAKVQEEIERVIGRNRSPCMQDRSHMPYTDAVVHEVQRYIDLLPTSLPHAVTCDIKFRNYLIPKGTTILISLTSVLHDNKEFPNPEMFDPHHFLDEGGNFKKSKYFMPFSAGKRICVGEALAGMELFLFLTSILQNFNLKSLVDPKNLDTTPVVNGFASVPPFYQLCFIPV

[10] = target: T3, Leucine aminopeptidase (Plasmodium falciparum 3D7, UniProt Q8IL11); experiment: P. falciparum M17LAP inhibitors, primary screen, biochemical, fluorogenic H-Leu-NHMec substrate, 1536-well (AID 1619); type: functional
T3 sequence (Q8IL11 whole entry): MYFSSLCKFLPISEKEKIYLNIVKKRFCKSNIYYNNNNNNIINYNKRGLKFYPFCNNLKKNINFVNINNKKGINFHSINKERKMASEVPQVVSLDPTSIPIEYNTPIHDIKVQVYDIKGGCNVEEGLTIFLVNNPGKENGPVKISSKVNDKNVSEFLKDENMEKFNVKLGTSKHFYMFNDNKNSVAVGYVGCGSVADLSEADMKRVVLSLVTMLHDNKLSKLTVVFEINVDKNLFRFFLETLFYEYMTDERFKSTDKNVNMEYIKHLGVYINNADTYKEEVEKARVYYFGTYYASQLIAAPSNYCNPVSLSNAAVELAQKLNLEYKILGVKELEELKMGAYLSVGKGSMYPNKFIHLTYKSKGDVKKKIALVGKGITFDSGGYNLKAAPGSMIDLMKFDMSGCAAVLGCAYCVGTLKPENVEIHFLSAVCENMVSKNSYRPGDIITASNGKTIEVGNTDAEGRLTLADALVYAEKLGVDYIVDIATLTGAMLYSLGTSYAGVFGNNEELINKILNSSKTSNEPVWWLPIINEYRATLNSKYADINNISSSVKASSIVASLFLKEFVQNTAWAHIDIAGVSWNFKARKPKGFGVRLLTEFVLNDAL

[11] = target: T4, Sentrin-specific protease 7 (Homo sapiens, UniProt Q9BQF6); experiment: inhibition of human SENP7 cleavage activity – biochemical, luminescence, SAR follow-up (AID 504497); type: functional
T4 sequence (Q9BQF6 whole entry): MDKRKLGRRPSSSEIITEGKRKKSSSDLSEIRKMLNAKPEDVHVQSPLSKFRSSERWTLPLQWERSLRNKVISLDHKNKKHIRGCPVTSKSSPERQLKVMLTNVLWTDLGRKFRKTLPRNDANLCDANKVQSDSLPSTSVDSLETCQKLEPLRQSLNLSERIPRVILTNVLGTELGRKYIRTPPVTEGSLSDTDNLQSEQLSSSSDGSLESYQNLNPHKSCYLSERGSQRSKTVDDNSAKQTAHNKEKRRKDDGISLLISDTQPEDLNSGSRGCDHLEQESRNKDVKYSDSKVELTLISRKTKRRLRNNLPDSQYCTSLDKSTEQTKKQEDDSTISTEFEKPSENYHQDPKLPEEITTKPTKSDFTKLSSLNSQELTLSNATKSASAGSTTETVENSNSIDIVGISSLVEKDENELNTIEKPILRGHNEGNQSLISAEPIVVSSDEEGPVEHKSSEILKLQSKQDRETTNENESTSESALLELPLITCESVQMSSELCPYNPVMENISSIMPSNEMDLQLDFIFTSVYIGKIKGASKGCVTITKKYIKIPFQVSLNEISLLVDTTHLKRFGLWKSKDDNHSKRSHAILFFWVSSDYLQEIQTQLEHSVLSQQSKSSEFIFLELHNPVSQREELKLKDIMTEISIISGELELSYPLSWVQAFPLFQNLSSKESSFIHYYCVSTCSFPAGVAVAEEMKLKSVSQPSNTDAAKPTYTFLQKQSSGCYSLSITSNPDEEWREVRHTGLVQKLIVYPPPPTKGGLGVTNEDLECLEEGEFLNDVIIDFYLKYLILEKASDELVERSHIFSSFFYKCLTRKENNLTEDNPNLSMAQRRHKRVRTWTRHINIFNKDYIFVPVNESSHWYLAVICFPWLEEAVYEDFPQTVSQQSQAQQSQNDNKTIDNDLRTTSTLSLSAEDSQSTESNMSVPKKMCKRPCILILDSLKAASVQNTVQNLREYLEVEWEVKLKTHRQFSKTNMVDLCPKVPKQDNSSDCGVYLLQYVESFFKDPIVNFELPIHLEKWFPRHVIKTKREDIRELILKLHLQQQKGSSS

[12] = target: T5, Sentrin-specific protease 6 (Homo sapiens, UniProt Q9GZR1); experiment: SAR Analysis of small molecule inhibitors of Sentrin-specific protease 6 (SENP6) using a Luminescent assay. [Related pubchem assays (depositor defined):AID2582, AID2599]; type: functional
T5 sequence (Q9GZR1 whole entry): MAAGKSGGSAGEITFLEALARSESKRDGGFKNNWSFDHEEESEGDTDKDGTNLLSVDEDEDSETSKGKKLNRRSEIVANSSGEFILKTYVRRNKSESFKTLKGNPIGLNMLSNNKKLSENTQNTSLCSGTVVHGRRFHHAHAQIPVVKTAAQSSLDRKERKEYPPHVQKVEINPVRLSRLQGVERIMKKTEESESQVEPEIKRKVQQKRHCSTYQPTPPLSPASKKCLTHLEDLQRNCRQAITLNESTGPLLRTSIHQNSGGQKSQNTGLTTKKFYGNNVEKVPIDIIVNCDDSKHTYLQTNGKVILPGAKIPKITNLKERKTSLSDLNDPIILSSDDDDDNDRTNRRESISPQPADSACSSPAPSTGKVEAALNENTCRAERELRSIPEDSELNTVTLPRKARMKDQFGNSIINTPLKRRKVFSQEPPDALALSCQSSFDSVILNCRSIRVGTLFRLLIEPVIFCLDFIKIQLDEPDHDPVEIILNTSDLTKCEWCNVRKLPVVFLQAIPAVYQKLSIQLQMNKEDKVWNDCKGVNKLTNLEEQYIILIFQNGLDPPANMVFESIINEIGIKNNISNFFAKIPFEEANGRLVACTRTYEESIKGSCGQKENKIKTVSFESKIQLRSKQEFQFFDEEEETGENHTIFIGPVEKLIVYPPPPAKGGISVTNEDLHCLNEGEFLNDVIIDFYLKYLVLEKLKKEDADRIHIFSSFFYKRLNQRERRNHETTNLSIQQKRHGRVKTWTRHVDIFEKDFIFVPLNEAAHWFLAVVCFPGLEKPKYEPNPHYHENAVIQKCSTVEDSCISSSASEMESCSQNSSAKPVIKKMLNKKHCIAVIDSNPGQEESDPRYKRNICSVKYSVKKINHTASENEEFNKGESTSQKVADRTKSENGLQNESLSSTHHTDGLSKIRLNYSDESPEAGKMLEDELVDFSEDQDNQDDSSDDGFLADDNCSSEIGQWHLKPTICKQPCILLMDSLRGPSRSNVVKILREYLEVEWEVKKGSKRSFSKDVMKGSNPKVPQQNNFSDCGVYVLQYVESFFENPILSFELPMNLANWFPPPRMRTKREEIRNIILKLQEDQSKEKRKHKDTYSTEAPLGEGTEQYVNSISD

[13] = target: T6, Sentrin-specific protease 8 (Homo sapiens, UniProt Q96LD8); experiment: inhibition of human SENP8 cleavage activity – biochemical, luminescence, SAR follow-up (AID 504501); type: functional
T6 sequence (Q96LD8 whole entry): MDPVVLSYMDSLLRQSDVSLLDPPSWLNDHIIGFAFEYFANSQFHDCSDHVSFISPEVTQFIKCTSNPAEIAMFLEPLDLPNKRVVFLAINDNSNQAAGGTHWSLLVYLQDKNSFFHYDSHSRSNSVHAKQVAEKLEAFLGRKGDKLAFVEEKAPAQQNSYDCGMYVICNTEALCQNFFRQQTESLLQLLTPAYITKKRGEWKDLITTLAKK

[14] = target: T7, Caspase-3 (Homo sapiens, UniProt P42574); experiment: SAR Analysis of small molecule inhibitors of Sentrin-specific proteases (SENPs) using a Caspase-3 Selectivity assay. [Related pubchem assays (depositor defined):AID2540, AID2599, AID434973, AID489001]; type: functional
T7 sequence (P42574 whole entry): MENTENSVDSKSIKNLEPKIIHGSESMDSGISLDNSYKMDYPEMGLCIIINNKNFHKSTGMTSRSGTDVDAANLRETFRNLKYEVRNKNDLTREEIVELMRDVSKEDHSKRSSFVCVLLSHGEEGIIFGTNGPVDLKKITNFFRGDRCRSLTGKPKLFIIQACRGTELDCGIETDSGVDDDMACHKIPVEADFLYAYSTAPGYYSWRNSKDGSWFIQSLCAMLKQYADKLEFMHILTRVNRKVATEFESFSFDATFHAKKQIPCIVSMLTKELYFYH

[15] = target: Melanocortin receptor 4 (Homo sapiens, UniProt P32245); type: functional, cell-based;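 further: Cell-based assay with luminescence read-out, confirmatory dose-response testing for agonist activity of biased ligands at MC4R; human U2OS cells with tagged receptor and beta-arrestin; potency of agonists that increase receptor coupling to beta-arrestin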
Melanocortin receptor 4, sequence (P32245 whole entry): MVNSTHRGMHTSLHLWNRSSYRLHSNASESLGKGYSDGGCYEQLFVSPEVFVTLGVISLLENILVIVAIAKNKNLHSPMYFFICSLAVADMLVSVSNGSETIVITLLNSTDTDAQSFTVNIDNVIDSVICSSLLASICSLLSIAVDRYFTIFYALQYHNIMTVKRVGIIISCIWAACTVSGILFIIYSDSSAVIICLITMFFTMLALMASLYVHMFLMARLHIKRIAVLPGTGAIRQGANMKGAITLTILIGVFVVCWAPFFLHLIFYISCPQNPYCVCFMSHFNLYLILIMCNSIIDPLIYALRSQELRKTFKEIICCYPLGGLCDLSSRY

[16] = target: T8, Aryl hydrocarbon receptor (Homo sapiens, UniProt P35869); settings: Potency;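 further: confirmatory quantitative high-throughput screen measuring activation of the AhR signaling pathway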
T8 sequence (P35869 whole entry): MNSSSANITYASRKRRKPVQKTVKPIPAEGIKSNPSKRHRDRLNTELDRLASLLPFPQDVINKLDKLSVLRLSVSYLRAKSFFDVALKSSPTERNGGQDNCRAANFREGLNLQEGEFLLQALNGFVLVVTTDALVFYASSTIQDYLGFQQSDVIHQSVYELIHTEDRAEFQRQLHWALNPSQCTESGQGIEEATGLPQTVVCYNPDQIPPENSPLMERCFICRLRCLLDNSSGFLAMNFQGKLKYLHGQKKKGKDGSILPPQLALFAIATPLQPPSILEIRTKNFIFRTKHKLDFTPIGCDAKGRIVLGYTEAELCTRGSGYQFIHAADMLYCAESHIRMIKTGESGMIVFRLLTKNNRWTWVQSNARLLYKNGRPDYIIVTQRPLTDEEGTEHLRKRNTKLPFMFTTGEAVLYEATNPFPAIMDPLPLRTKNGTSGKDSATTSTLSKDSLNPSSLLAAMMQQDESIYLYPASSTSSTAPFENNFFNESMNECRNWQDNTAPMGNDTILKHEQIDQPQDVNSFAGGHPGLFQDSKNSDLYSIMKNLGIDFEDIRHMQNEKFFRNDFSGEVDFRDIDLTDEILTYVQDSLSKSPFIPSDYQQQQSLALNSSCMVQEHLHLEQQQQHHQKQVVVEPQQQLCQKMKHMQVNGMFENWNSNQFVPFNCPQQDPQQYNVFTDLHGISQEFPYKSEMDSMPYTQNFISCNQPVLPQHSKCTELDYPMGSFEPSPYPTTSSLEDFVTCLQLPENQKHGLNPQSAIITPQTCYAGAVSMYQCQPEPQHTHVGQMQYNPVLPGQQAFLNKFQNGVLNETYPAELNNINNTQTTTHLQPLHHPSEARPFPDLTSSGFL

Cc1ccc(C)c2nc3sc(C(=O)N4CCOCC4)c(N)c3cc12
EC50 [1]: > 104 µM (inactive)

COc1cc2nc(Nc3ccc(C)c(C)c3)nc(N)c2cc1OC
AC50 [2]: 89.2 µM (active) | EC50 [3]: 0.559 µM (active) | CC50 [4]: 14.8 µM (active) | AC50 [5]: 74.1 µM (active) | EC50 [6]: > 30 µM (not active) | AC50 [7]: 5.47 µM (active)

Sc1nc2cc(Cl)ccc2s1
AC50 [8]: 11.2 µM (inconclusive) | AC50 [9]: 39.8 µM (inconclusive) | EC50 [1]: > 104 µM (inactive) | IC50 [10]: 14.8 µM (active)

CS(=O)(=O)c1ccc(N/N=C/c2c[nH]c3ccccc23)cc1
IC50 [11]: > 99 µM (inactive) | IC50 [12]: > 99 µM (inactive) | IC50 [13]: > 99 µM (inactive) | IC50 [14]: > 99 µM (inactive)

O=C(NC(c1ccc(Cl)cc1)c1ccccn1)C1CCN(CCOc2ccc(Cl)cc2Cl)CC1 (stereo unspecified)
EC50 [15]: > 89.2 µM (inactive)

COc1ccc(C(=O)Nc2ccc3ccccc3c2)cc1Br
IC50 [11]: > 99 µM (inactive) | IC50 [12]: > 99 µM (inactive) | IC50 [13]: > 99 µM (inactive) | IC50 [14]: > 99 µM (inactive)

COP(=O)(OC)SCn1c(=O)oc2cc(Cl)cnc21 [AZAMETHIPHOS]
AC50 [16]: 44.7 µM (inconclusive)

— ChEMBL document CHEMBL1201862, “PubChem BioAssay data set” (2004)
